According to patent US20260297070A1, “CYCLIC [COMPOUND LEFT OUT] WRN INHIBITORS” (Nimbus Wadjet, Inc., priority 2023, published 2026):

These compounds were tested against T1, human Werner helicase (WRN-BV08, Uniprot Q14191, amino acids 517-1235 with L1074F point mutation) (Homo sapiens, UniProt Q14191, L1074F) (assay: WRN (BV08) ADP-Glo Assay). Conditions: 0.15 nM WRN, 5 μM ATP, 0.1 nM DNA duplex, 15 min preincubation, 60 min at 25° C., pH 7.5, 1% DMSO; read-out: ADP-Glo_hWRN_IC50.
T1 construct: Uniprot Q14191, amino acids 517-1235 with L1074F point mutation; TEV-cleavable 8×His (C, cleaved yes); made in house; host or cells: Sf9 insect cells (baculovirus)
T1 sequence (Q14191 with tags, fused parts or gaps L1074F limits assumed): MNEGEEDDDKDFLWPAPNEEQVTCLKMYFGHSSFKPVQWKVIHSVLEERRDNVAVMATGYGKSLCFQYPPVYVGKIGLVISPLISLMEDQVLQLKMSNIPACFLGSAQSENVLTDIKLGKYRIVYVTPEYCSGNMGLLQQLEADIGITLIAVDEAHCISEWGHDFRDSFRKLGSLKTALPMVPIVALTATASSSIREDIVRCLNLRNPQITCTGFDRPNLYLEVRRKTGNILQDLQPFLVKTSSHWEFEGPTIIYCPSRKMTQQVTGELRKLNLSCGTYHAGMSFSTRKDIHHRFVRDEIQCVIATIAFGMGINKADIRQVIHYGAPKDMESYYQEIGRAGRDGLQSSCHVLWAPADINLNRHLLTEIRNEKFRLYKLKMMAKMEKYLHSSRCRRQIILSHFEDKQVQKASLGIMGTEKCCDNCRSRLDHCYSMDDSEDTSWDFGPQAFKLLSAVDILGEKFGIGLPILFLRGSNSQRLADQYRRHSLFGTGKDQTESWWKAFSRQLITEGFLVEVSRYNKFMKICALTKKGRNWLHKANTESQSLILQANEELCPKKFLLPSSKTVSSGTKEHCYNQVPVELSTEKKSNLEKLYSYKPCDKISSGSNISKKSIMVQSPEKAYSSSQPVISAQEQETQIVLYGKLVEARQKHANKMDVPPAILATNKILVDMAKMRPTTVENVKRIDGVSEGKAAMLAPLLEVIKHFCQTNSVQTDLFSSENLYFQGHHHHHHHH
Format: biochemical
Text: Example 2: WRN (BV08) ADP-Glo Assay Protocol
Bovine skin gelatin (BSG), dimethyl sulfoxide (DMSO), Pluronic F-127 and Tris(2-carboxyethyl)phosphine hydrochloride solution (TCEP) were purchased from Sigma-Aldrich at the highest level of purity possible. Bicine buffer solution was purchased from Alfa Aesar and compound NSC-617145 was purchased from Tocris. DNA duplex was synthesized at BGI (Shenzhen, China) and was composed of strand 1 with the sequence 5′-[…]-3′ (SEQ ID NO.: 1) and strand 2 with the sequence 5′-[…]-3′ (SEQ ID NO.: 2). DNA strands were annealed by heating to 95° C. for 5 minutes followed by slow cooling to room temperature. Compounds in 100% DMSO (0.1 μl) were spotted into a 384-well white polystyrene Optiplate-384 (Perkin Elmer) assay plate using a LabCyte Echo 550 (Agilent). DMSO (0.1 μl) was added to columns 12, rows A-H and column 24, rows I-P for the maximum signal control. Compound NSC-617145 (0.1 μl) was added to columns 12, rows I-P and 24, rows A-H for the minimum signal control (100% inhibition). Compounds/DMSO were preincubated for 15 minutes at 25° C. with 5 uL 2×WRN (BV08), prepared as described below, in assay buffer containing 20 mM Bicine (pH=7.5), 1 mM MgCl2, 10 mM KCl, 0.1% Pluronic F-127, 0.005% BSG, 1 mM TCEP. The reaction was initiated by the addition of 5 μl 2× substrate mixture in assay buffer and incubated for 60 minutes at 25° C. The final concentrations of the assay components were 0.15 nM WRN, 5 μM ATP, and 0.1 nM DNA duplex. The final DMSO concentration was 1% and the reference compound concentration (NSC-617145) used for the minimal signal control was 20 μM. The reaction was stopped by the addition of the ADP-Glo Kit components (Promega) as directed and the relative luminescence units (RLU) were read on an Envision 2104 (Perkin Elmer).
% Inhibition Calculation:
Where RLU=relative luminescence units, sample=signal in sample well, and MIN and MAX are the respective minimum and maximum signal controls.
Four-Parameter IC50 Fit Equation:
Where top and bottom are normally allowed to float but may be fixed at 100 or 0 respectively in a 3-parameter fit. Y is the % inhibition and X is the compound concentration.
Molecular Biology and virus production. The DNA encoding human Werner helicase (Uniprot Q14191, amino acids 517-1235 with L1074F point mutation) was generated with codon-optimization for E. coli expression and subcloned into the pFastBac vector with a TEV cleavable 8×His tag (WRN-BV08). The baculovirus from the expression plasmid WRN-BV08 was generated from transfection and amplification following the manufacturer's instructions.
Sf9 cells grown in SF900II media were infected with 1:200 WRN-BV08 P2 virus and incubated for protein expression for 72 h at 27° C. The WRN protein was purified using the following protocol. The cell pellets were thawed and resuspended in buffer A (50 mM Tris, pH 7.5, 500 mM NaCl, 1 mM TCEP, 10% Glycerol) supplemented with 0.5% CHAPS, 1 mM [COMPOUND LEFT OUT], 1 μg/mL Leupeptin, 1 μg/mL Pepstatin, and the Pierce Universal Nuclease and cocktail tablet. Cleared lysates were loaded onto a Ni Sepharose™ excel column and washed with buffer A and bound protein was eluted with buffer A supplemented with 300 mM imidazole. The eluted protein was dialyzed against buffer A and digested by His-tagged TEV (1:5 ratio) overnight at 4° C. ZnCl2 was added into the sample at final 15 μM before loading onto a second Ni Sepharose™ excel column. Untagged WRN protein was eluted from the column with buffer A supplemented with 20 mM imidazole, dialyzed overnight into buffer B (50 mM Tris, pH 7.5, 1 mM TCEP, 10% Glycerol) supplemented with 150 mM NaCl and loaded onto a Heparin column. Proteins were eluted with a step gradient of buffer B supplemented with 150 mM, 200 mM, 300 mM and 500 mM NaCl. […]

| IC50 [µM] | SMILES |
| --- | --- |
| 0.5 to 5 | O=C(Cc1ccc(-c2ccc(F)cc2)cc1C(F)F)N(Cc1ccncc1)C1C=CS(=O)(=O)C1 (centres unmarked) [I-196, 2-[3-(difluoromethyl)-4′-fluoro-[1,1′-biphenyl]-4-yl]-N-(1,1-dioxo-2,3-dihydro-1lambda6-thiophen-3-yl)-N-[(pyridin-4-yl)methyl]acetamide] |
| 5 to 10 | O=C(Cc1ccc(C(F)(F)F)cc1F)N(Cc1ccncc1)C1C=CS(=O)(=O)C1 (centres unmarked) [I-260, N-(1,1-dioxo-2,3-dihydro-1lambda6-thiophen-3-yl)-2-[2-fluoro-4-(trifluoromethyl)phenyl]-N-[(pyridin-4-yl)methyl]acetamide] |
| 10 to 50 | O=C(CCc1c[nH]c2cc(Cl)ccc12)N(Cc1ccncc1)C1C=CS(=O)(=O)C1 (centres unmarked) [I-306, 3-(6-chloro-1H-indol-3-yl)-N-(1,1-dioxo-2,3-dihydro-1lambda6-thiophen-3-yl)-N-[(pyridin-4-yl)methyl]propanamide] |
| 5 to 10 | COc1cccc(CN(C(=O)Cc2ccc(-n3cccc3)cc2)C2C=CS(=O)(=O)C2)c1 (centres unmarked) [I-234, N-(1,1-dioxo-2,3-dihydro-1lambda6-thiophen-3-yl)-N-[(3-methoxyphenyl)methyl]-2-[4-(1H-pyrrol-1-yl)phenyl]acetamide] |
| 0.5 to 5 | COc1cc(CN(C(=O)C2Cc3cc(-n4cccc4C)ccc3O2)C2C=CS(=O)(=O)C2)ccn1 (centres unmarked) [I-109, N-(1,1-dioxido-2,3-dihydrothiophen-3-yl)-N-((2-methoxypyridin-4-yl)methyl)-5-(2-methyl-1H-pyrrol-1-yl)-2,3-dihydrobenzofuran-2-carboxamide] |
| < 0.5 | COc1cc(CN(C(=O)C(C(=O)N(C)CC2CC(F)(F)C2)c2ccc(-c3ccc(F)c(F)c3)cc2F)[C@@H]2C=CS(=O)(=O)C2)ccn1 (stereo partly drawn) [I-822, N-[(3,3-difluorocyclobutyl)methyl]-N′-[(3R)-1,1-dioxo-2,3-dihydro-1lambda6-thiophen-3-yl]-N′-[(2-methoxypyridin-4-yl)methyl]-N-methyl-2-{3,3′,4′-trifluoro-[1,1′-biphenyl]-4-yl}propanediamide] |
| < 0.5 | O=C(Cn1cc(-c2ccc(F)c(F)c2)cn1)N(Cc1ccnc(N2CCC2)c1)C1C=CS(=O)(=O)C1 (centres unmarked) [I-760, N-{[2-(azetidin-1-yl)pyridin-4-yl]methyl}-2-[4-(3,4-difluorophenyl)-1H-pyrazol-1-yl]-N-(1,1-dioxo-2,3-dihydro-1lambda6-thiophen-3-yl)acetamide] |
| 0.5 to 5 | COc1cc(CN(C(=O)Cn2cc(-c3ccccc3F)cn2)C2C=CS(=O)(=O)C2)ccn1 (centres unmarked) [I-134, N-(1,1-dioxo-2,3-dihydro-1lambda6-thiophen-3-yl)-2-[4-(2-fluorophenyl)-1H-pyrazol-1-yl]-N-[(2-methoxypyridin-4-yl)methyl]acetamide] |
| < 0.5 | CC(C)(O)c1cc(CN(C(=O)C(F)c2ccc(-c3ccc(F)c(F)c3)cc2F)C2C=CS(=O)(=O)C2)ccn1 (centres unmarked) [I-77, N-(1,1-dioxo-2,3-dihydro-1lambda6-thiophen-3-yl)-2-fluoro-N-{[2-(2-hydroxypropan-2-yl)pyridin-4-yl]methyl}-2-{3,3′,4′-trifluoro-[1,1′-biphenyl]-4-yl}acetamide] |
| 10 to 50 | CC(=O)N(C)C(C(=O)N(Cc1ccncc1)C1C=CS(=O)(=O)C1)c1ccc(-c2ccc(F)cc2)cc1 (single isomer, unassigned) [I-282] |
| 0.5 to 5 | O=C(Cc1ccc(-n2cccc2)cc1)N(Cc1cccc(F)c1F)C1C=CS(=O)(=O)C1 (centres unmarked) [I-221, N-[(2,3-difluorophenyl)methyl]-N-(1,1-dioxo-2,3-dihydro-1lambda6-thiophen-3-yl)-2-[4-(1H-pyrrol-1-yl)phenyl]acetamide] |
| < 0.5 | CC(C)(O)c1cc(CN(C(=O)Cc2ccc(S(F)(F)(F)(F)F)cc2)C2C=CS(=O)(=O)C2)ccn1 (centres unmarked) [I-39, N-(1,1-dioxo-2,3-dihydro-1lambda6-thiophen-3-yl)-N-{[2-(2-hydroxypropan-2-yl)pyridin-4-yl]methyl}-2-[4-(pentafluoro-lambda6-sulfanyl)phenyl]acetamide] |
| 10 to 50 | COc1cc(CN(C(=O)Cc2ccc(-n3cccc3C)cc2F)C2C=CS(=O)(=O)C2)ccn1 (single isomer, unassigned) [I-329] |
| < 0.5 | CC(C)(O)c1cc(CN(C(=O)C(OC(F)F)c2ccc(-c3ccc(F)c(F)c3)cc2F)[C@@H]2C=CS(=O)(=O)C2)ccn1 (single isomer, unassigned) [I-632] |
| < 0.5 | COCCOC(C(=O)N(Cc1ccnc(C(C)(C)O)c1)[C@@H]1C=CS(=O)(=O)C1)c1ccc(-c2ccc(F)c(F)c2)cc1F (stereo partly drawn) [I-30, N-[(3R)-1,1-dioxo-2,3-dihydro-1lambda6-thiophen-3-yl]-N-{[2-(2-hydroxypropan-2-yl)pyridin-4-yl]methyl}-2-(2-methoxyethoxy)-2-{3,3′,4′-trifluoro-[1,1′-biphenyl]-4-yl}acetamide] |
| 10 to 50 | O=C(Cc1ccc(S(F)(F)(F)(F)F)cc1)N(Cc1ccnc(C2(O)COC2)c1)C1C=CS(=O)(=O)C1 (centres unmarked) [I-633, N-(1,1-dioxo-2,3-dihydro-1lambda6-thiophen-3-yl)-N-{[2-(3-hydroxyoxetan-3-yl)pyridin-4-yl]methyl}-2-[4-(pentafluoro-lambda6-sulfanyl)phenyl]acetamide] |
| > 50 | O=C(Cc1ccc(-n2cccc2)cc1)N(Cc1ccnc2[nH]cnc12)C1C=CS(=O)(=O)C1 (centres unmarked) [I-472, N-(1,1-dioxo-2,3-dihydro-1lambda6-thiophen-3-yl)-N-({3H-imidazo[4,5-b]pyridin-7-yl}methyl)-2-[4-(1H-pyrrol-1-yl)phenyl]acetamide] |
| > 50 | O=C(Cc1cccc(C2CC2)c1)N(Cc1ccncc1)C1C=CS(=O)(=O)C1 (centres unmarked) [I-437, 2-(3-cyclopropylphenyl)-N-(1,1-dioxo-2,3-dihydro-1lambda6-thiophen-3-yl)-N-[(pyridin-4-yl)methyl]acetamide] |
| < 0.5 | COc1cc(CN(C(=O)C(OC)c2ccc(-c3ccc(F)c(F)c3)cc2F)C2C=CS(=O)(=O)C2)ccn1 (centres unmarked) [I-45, N-(1,1-dioxo-2,3-dihydro-1lambda6-thiophen-3-yl)-2-methoxy-N-[(2-methoxypyridin-4-yl)methyl]-2-{3,3′,4′-trifluoro-[1,1′-biphenyl]-4-yl}acetamide] |
| 0.5 to 5 | COc1cc(CN(C(=O)Cc2ncc(-c3ccc(F)cc3)cc2F)C2C=CS(=O)(=O)C2)ccn1 (centres unmarked) [I-172, N-(1,1-dioxo-2,3-dihydro-1lambda6-thiophen-3-yl)-2-[3-fluoro-5-(4-fluorophenyl)pyridin-2-yl]-N-[(2-methoxypyridin-4-yl)methyl]acetamide] |
| < 0.5 | CC(C)(O)c1csc(CN(C(=O)Cn2cc(-c3cc(F)c(F)c(F)c3)cn2)C2C=CS(=O)(=O)C2)n1 (single isomer, unassigned) [I-798] |
| 0.5 to 5 | O=C(Cc1ccc(-n2cccc2)cc1)N(Cc1ccnc(C(F)F)c1)C1C=CS(=O)(=O)C1 (centres unmarked) [I-187, N-{[2-(difluoromethyl)pyridin-4-yl]methyl}-N-(1,1-dioxo-2,3-dihydro-1lambda6-thiophen-3-yl)-2-[4-(1H-pyrrol-1-yl)phenyl]acetamide] |
| 10 to 50 | O=C(Cc1ccc(-n2cccc2)c(F)c1)N(Cc1ccncc1)C1C=CS(=O)(=O)C1 (centres unmarked) [I-327, N-(1,1-dioxo-2,3-dihydro-1lambda6-thiophen-3-yl)-2-[3-fluoro-4-(1H-pyrrol-1-yl)phenyl]-N-[(pyridin-4-yl)methyl]acetamide] |
